Entries after “also recorded” stand apart in the source; their conditions may differ.

The results in this text go back to patent publication US20070135515A1, “Method for producing sorbicillactone a” (priority 2004, published 2007).

The subject of one assay is neuronal cells. Put plainly: Intracellular calcium level [Ca2+]i in primary neurons (Fura-2 fluorescence ratio 340/380 nm). The class given is cell-based, rat. Particulars: 200 μM stimulant and 2.5 mM Ca2+, without sorbicillactone A. An excerpt:
Material: The same materials as described in Perovic et al. (1998, Mech. Ageing Dev. 101:1-19) were used. Fura-2-acetoxymethylester (Fura-2-AM) was obtained from Molecular Probes (Leiden, The Netherlands), Dulbecco's modified Eagle's Medium with 4.5 g/L glucose (DMEM/HG), L-glutamic acid (L-Glu), and serotonin (5-HT) from Sigma-Aldrich (Taufkirchen, Germany) and the antibodies mouse-anti-neurofilament (68 kDa) and mouse-anti-glial-fibrillary-acidic-protein (GFAP) from Roche Diagnostics (Mannheim, Germany). Sorbicillactone A of the batch: 2208/2a was used.
Primary neurons: The cortical cell culture was produced from the brains of 17-18 day-old rat embryos, according to a modified procedure [Freshney (1987) Culture of specific cell types. In: Culture of Animal Cells. A Manual of Basic Technique, A. R. Liss, New York, S. 257-288; Perovic et al. (1994) Eur. J. Pharmacol. (Mol. Pharmacol. Sec.) 288:27-33]. After the isolation, the cerebral-hemispheres were put into Hank's Balanced Salt Solution (HBSS) without Ca^2+ and Mg^2+, and the neuronal cells were subsequently dissociated in HBSS using 0.025% (w/v) trypsin (10 min.; 37° C.). The proteolytic reaction was stopped with 10% (v/v) foetal calf serum (FCS). The single-cell suspensions were centrifuged, and the resulting pellet was taken up into Dulbecco's modified Eagles's Medium with 4.5 g/L glucose (DMEM/HG) (contains 2 mM L-glutamine, 100 mU/L insulin, and 10% (v/v) FCS). The cells were plated in a chamber with poly-L-lysine (5 μg/mL, 300 μl/cm^2) in a cell density of 2.0×10^5 cells/cm^2. After two days the DMEM/HG/10%-FCS-medium was removed and replaced with DMEM/HG/serum-free medium. Two weeks after the isolation, the immune staining took place with anti-neurofilament (68 kDa) as a marker for neurons, and anti-GFAP as a marker for glial cells. The cultures contained >80% neurons; the residual 20% were GFAP-positive cells, mainly astrocytes (Ushijima et al. (1995) Eur. J. Neurosci. 7:1353-9). The neurons were held in an atmosphere of 95% air and 5% CO2 at 37° C.
Loading of neurons with Fura-2-AM: The intracellular Ca^2+-concentration ([Ca^2+]i) was determined by fluorescence measurements. The ratio of the absorption of the Ca^2+-indicator dye Fura-2-AM at 340 and 380 nm (Grynkiewicz et al. (1985) J. Biol. Chem. 260:3440-50) was decisive. The neurons were loaded with 6 μM Fura-2-AM in DMEM/HG/serum-free medium (supplemented with 1% (w/v) bovine serum albumin) at 37° C. for 60 min. After incubation, the cells were washed two times with medium, and further incubated for 45 min at 37° C.
Calcium-calibration curve: A calcium-calibration curve was produced according to the methods of Grynkiewicz et al. (1985, J. Biol. Chem. 260:3440-50). Fluorescence pictures were obtained for each buffer at 340 and 380 nm. The quotient from both fluorescence spectra (340/380 nm) was calculated, and depicted as a calibration curve. The quotient (340/380 nm [ratio-value]) of 1.0 corresponds to 228 nM [Ca^2+]i.
Changes of the calcium level in neurons: In all experimental settings, the cells were first loaded with Fura-2-AM, and subsequently stimulated with different substances (in Locke's solution; 154 mM NaCl; 5.6 mM KCl; 3.6 mM NaHCO3; 5.6 mM glucose, and 10 mM Hepes; pH 7.4; without CaCl2). Sorbicillactone A was dissolved in a concentration of 10 mg/mL in 100% (v/v) DMSO, and stored at −20° C. In the first setting, the neurons were stimulated for 5 min with 0.1% (v/v) DMSO (control); after 10 min 200 μM L-glutamic acid (L-Glu), 200 μM serotonin (5-HT), and 2.5 mM CaCl2 were added to the cells. In a second setting, the effect of L-Glu, 5-HT, and 2.5 mM CaCl2 on the calcium level of pre-incubated neurons (each 5 min with 10 μg/mL sorbicillactone A) was tested. In all experiments, the [Ca^2+]i-level was measured for at least 20-25 min. […]
A general note: Calcium flux is commonly read through the fluorescence of an indicator in the cells.

Assay [1] relates to L5178Y-mouse lymphoma cells (ATCC CRL 1722). Put plainly: Apoptosis detection (Cell Death Detection ELISA plus). It counts as cell-based. The following applies: for MW ± SD (OD) / % of the control (negative): 4 hours incubation; for MW ± SD (OD): 405 nm; for % of the control (negative): negative control = 100%. The method, then:
Material: RPMI1640-medium, Hepes buffered, was obtained from Sigma-Aldrich (Taufkirchen, Germany), foetal calf serum (FCS) from Gibco (Karlsruhe, Germany), and Cell Death Detection ELISA plus from Roche (Mannheim, Germany, Cat. No. 1774425). Sorbicillactone A of the batch: 2208/2a was used.
Incubation and preparation of the cells: The L5178Y-mouse lymphoma cells (ATCC CRL 1722)) were counted, and adjusted to a number of cells of 10^4 cells/mL. The sorbicillactone-A- and dihydrosorbicillactone-A-stock solution (10 mg/mL in DMSO) was diluted with medium (RPMI/Hepes with 10% FCS) to concentrations of 60, 20, and 6 μg/mL. In a 96-well-culture plate, 100 μl cell suspension (˜10^3 cells) were each pipetted to each of the 100 μl of the different dihydrosorbicillactone-A- and sorbicillactone-A-solutions. RPMI1640-medium without dihydrosorbicillactone and sorbicillactone A was used as a negative control. The final concentrations were 30, 10, and 3 μg/mL sorbicillactone A and dihydrosorbicillactone A. Four parallel settings of each sample were analysed. The cells were incubated for 4 hours at 37° C. After the incubation, the culture plate was centrifuged at […] (˜1200 rpm) for 10 min at room temperature. The supernatant was carefully pipetted off, and the cells were each overlayered with 200 μl lysis-buffer (Roche-Kit). Then, the cells were lysed for 30 min at room temperature. After the lysis, the culture plate was again centrifuged at 200×g (˜1200 rpm) for 10 min at room temperature.
ELISA: Two strips with eight wells each were taken from the streptavidin-ELISA-plate of the Roche-kit. 20 μl of the supernatant of a cell-lysis (see above) were added into each well. In doing so, the samples with 30 or 10 μg/mL of sorbicillactone A and dihydrosorbicillactone A were loaded as 4-fold, and all other as duplicate determinations. In addition to these sample, a positive control (DNA-histone-complex) was loaded. Then, 80 μl of immune reagent were added into each well. This solution consisted of incubation buffer, anti-histone-biotin, and anti-DNA-peroxidase. The incubation buffer was used as a blank value. The ELISA-plate was incubated for 2 hours in a shaking incubator at room temperature. Them the supernatants were carefully removed, and the wells were each washed 3× with 250 μl of the incubation buffer. After the washing, 100 μl of ABTS-solution were added into each “well”. Subsequently, the cells were incubated for 30 min in the dark at room temperature. The measurement took place in a multiscan at an emission wavelength of 405 nm.
A general note: ELISA stands for enzyme-linked immunosorbent assay.

A short description of assay [2]: Relative activity compared with sorbicillactone A (test not specified).

Take `N[C@@H](CCC(=O)O)C(=O)O` [L-glutamic acid]: in the assay with neuronal cells, the “increase of the 340-/380-nm-values” is 1.715±0.081 and the “increase of the 340-/380-nm-values, control assumed to be 100%” value worked out at 307.1%.
For the molecule `NCCc1c[nH]c2ccc(O)cc12` [Serotonin, serotonin], in the assay with neuronal cells, the “increase of the 340-/380-nm-values” is listed as 0.971±0.112 and the “increase of the 340-/380-nm-values, control assumed to be 100%” value is listed as 219.9%.
For the molecule `C/C=C/CC/C(O)=C1/C(=O)C(C)=C(O)[C@@]2(C)OC(=O)[C@@](C)(NC(=O)/C=C/C(=O)O)[C@@H]12` [dihydrosorbicillactone A], the results for the “MW ± SD (OD)” value in assay [1] (3 μg/mL), in assay [1] (10 μg/mL) and in assay [1] (30 μg/mL) were 0.016 ± 0.003 OD, 0.013 ± 0.002 OD and 0.016 ± 0.004 OD, respectively. Further, the results for the “% of the control (negative)” value in assay [1] (3 μg/mL), in assay [1] (10 μg/mL) and in assay [1] (30 μg/mL) were 76.2%, 61.9% and 76.2%, respectively. For the same molecule, the induction of apoptosis result in assay [1] (3, 10, and 30 μg/mL, 4 hours of incubation) was “did not result in an induction of apoptosis; also recorded: did not induce apoptosis”. The “activity relative to sorbicillactone A” value in assay [2] is recorded as “five-fold less active”.
